Reference: patent US10758534B2 (Vertex Pharmaceuticals Incorporated, priority 2014, dated 2020)

molecular target: T1, F508del (Homo sapiens, UniProt P13569, DEL508-508); assay: Protocol 2: FRET membrane potential optical assay (VIPR), identification of correction compounds; type: cell-based; settings: F508del CFTR modulator activity; compounds of Table 1; read-out: EC30
T1 construct: expressed in transfected cells
Method in brief: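 Corrector readout: membrane-potential FRET (CC2-DMPE donor, DiSBAC2(3) acceptor) on VIPR II after Cl⁻-free gluconate bath with 10 μM forskolin and 20 μM genistein. Before this, F508del-expressing NIH3T3 cells were exposed to test compound for 16 h at 37 °C without serum; 27 °C incubation served as temperature-correction control.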

T1 sequence (P13569 with tags, fused parts or gaps DEL508-508): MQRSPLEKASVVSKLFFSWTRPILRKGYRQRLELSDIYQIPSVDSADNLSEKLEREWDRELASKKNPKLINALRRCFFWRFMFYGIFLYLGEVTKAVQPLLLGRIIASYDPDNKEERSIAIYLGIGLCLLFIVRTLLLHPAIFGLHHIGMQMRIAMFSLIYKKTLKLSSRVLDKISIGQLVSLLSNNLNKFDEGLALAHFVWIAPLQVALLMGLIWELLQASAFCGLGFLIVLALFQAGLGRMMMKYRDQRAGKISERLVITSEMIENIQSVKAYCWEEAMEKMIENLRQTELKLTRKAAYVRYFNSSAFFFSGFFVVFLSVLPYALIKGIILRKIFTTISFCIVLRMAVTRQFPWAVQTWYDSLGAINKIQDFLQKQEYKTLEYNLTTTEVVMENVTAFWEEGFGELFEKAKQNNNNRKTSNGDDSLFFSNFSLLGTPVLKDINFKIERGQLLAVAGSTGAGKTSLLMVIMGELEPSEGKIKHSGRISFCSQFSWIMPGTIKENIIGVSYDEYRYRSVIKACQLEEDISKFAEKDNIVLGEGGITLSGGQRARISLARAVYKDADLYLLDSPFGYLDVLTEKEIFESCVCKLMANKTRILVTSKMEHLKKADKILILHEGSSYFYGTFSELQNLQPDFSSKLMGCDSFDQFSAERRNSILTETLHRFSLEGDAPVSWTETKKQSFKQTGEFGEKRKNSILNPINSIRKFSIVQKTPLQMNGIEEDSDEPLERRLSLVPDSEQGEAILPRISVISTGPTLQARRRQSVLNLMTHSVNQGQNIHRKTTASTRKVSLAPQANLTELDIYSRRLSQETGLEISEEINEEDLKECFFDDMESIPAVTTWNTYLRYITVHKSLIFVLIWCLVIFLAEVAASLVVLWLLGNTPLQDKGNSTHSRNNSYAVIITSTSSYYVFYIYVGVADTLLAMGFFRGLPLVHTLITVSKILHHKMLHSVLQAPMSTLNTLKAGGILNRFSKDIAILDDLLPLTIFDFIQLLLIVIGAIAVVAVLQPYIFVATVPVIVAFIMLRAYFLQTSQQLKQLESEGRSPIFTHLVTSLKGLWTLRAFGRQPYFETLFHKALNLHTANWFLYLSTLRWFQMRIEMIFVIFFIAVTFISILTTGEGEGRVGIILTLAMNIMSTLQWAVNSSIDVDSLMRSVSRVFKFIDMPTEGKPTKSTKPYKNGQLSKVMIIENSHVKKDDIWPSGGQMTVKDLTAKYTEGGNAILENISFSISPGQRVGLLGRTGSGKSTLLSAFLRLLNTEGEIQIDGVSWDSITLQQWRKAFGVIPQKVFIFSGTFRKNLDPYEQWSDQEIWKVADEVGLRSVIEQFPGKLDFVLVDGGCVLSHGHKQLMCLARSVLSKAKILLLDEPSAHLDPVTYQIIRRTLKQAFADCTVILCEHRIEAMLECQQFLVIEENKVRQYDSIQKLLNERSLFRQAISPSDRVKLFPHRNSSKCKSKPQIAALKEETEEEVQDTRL

Structure (SMILES)	EC30 [µM]
COc1ccc(-c2ccc(C(=O)NS(=O)(=O)c3cccnc3N)c(N3C[C@@H](C)CC3(C)C)n2)cc1OC [Compound 2664, N-[(2-amino-3-pyridyl)sulfonyl]-6-(3,4-dimethoxyphenyl)-2-[(4S)-2,2,4-trimethylpyrrolidin-1-yl]pyridine-3-carboxamide]	< 3
CC1CN(c2ncccc2C(=O)NS(=O)(=O)c2cccc(N3CC4CCCC4C3)n2)C(C)(C)C1 (stereo not shown) [Compound 2340, N—[[6-(3,3a,4,5,6,6a-hexahydro-1H-cyclopenta[c]pyrrol-2-yl)-2-pyridyl]sulfonyl]-2-(2,2,4-trimethylpyrrolidin-1-yl)pyridine-3-carboxamide]	< 3
CC1CN(c2ncccc2C(=O)NS(=O)(=O)c2cccc(OCc3cccc4c3OCO4)n2)C(C)(C)C1 (stereo not shown) [Compound 2249, N—[[6-(1,3-benzodioxol-4-ylmethoxy)-2-pyridyl]sulfonyl]-2-(2,2,4-trimethylpyrrolidin-1-yl)pyridine-3-carboxamide]	< 3
Cc1cc(OCC(C)C)nn1-c1ccc(C(=O)NS(=O)(=O)c2cccnc2N)c(N2C[C@@H](C)CC2(C)C)n1 [Compound 2238, N-[(2-amino-3-pyridyl)sulfonyl]-6-(3-isobutoxy-5-methyl-pyrazol-1-yl)-2-[(4S)-2,2,4-trimethylpyrrolidin-1-yl]pyridine-3-carboxamide]	< 3
CC1CN(c2ncccc2C(=O)NS(=O)(=O)c2cccc(N3CCN(Cc4ccccn4)CC3)n2)C(C)(C)C1 (stereo not shown) [Compound 2504, N—[[6-[4-(2-pyridylmethyl)piperazin-1-yl]-2-pyridyl]sulfonyl]-2-(2,2,4-trimethylpyrrolidin-1-yl)pyridine-3-carboxamide]	3 to 10
C[C@@H]1CN(c2nc(-c3ccccc3C#N)ccc2C(=O)NS(=O)(=O)c2cccnc2N)C(C)(C)C1 [Compound 2437, N-[(2-amino-3-pyridyl)sulfonyl]-6-(2-cyanophenyl)-2-[(4S)-2,2,4-trimethylpyrrolidin-1-yl]pyridine-3-carboxamide]	< 3
C[C@@H]1CN(c2nc(-c3cc(F)cc(F)c3)ccc2C(=O)NS(=O)(=O)c2cccnc2N)C(C)(C)C1 [Compound 2272, N-[(2-amino-3-pyridyl)sulfonyl]-6-(3,5-difluorophenyl)-2-[(4S)-2,2,4-trimethylpyrrolidin-1-yl]pyridine-3-carboxamide]	< 3
CC1CN(c2nc(C(C)(C)C)ccc2C(=O)NS(=O)(=O)c2cccc(OCc3ccc4c(c3)OCO4)n2)C(C)(C)C1 (stereo not shown) [Compound 2714]	< 3
C[C@@H]1CN(c2nc(-c3ccccc3OC(F)(F)F)ccc2C(=O)NS(=O)(=O)N2CC[C@H](N)C2)C(C)(C)C1 [Compound 2070, N-[(3S)-3-aminopyrrolidin-1-yl]sulfonyl-6-[2-(trifluoromethoxy)phenyl]-2-[(4S)-2,2,4-trimethylpyrrolidin-1-yl]pyridine-3-carboxamide]	< 3
CC1CN(c2ncccc2C(=O)NS(=O)(=O)c2cccc(Oc3ccccc3C(C)(C)C)n2)C(C)(C)C1 (stereo not shown) [Compound 2083, N—[[6-(2-tert-butylphenoxy)-2-pyridyl]sulfonyl]-2-(2,2,4-trimethylpyrrolidin-1-yl)pyridine-3-carboxamide]	< 3
CC1CN(c2ncccc2C(=O)NS(=O)(=O)c2cccc(N3CCN(c4ccccc4)CC3)n2)C(C)(C)C1 (stereo not shown) [Compound 2208, N—[[6-(4-phenylpiperazin-1-yl)-2-pyridyl]sulfonyl]-2-(2,2,4-trimethylpyrrolidin-1-yl)pyridine-3-carboxamide]	< 3
CC1CN(c2ncccc2C(=O)NS(=O)(=O)c2cccc(OCc3cc(F)cc(F)c3)n2)C(C)(C)C1 (stereo not shown) [Compound 2462, N—[[6-[(3,5-difluorophenyl)methoxy]-2-pyridyl]sulfonyl]-2-(2,2,4-trimethylpyrrolidin-1-yl)pyridine-3-carboxamide]	< 3
COc1ncc(-c2ccc(C(=O)NS(=O)(=O)c3cccnc3N)c(N3C[C@@H](C)CC3(C)C)n2)c(OC)n1 [Compound 2008, N-[(2-amino-3-pyridyl)sulfonyl]-6-(2,4-dimethoxypyrimidin-5-yl)-2-[(4S)-2,2,4-trimethylpyrrolidin-1-yl]pyridine-3-carboxamide]	3 to 10
CCOC(=O)c1ccc(OC)c(-c2cnc(N3CC(C)CC3(C)C)c(C(=O)NS(=O)(=O)c3cccc(N)n3)c2)c1 (stereo not shown) [Compound 2134, ethyl 3-[5-[(6-amino-2-pyridyl)sulfonylcarbamoyl]-6-(2,2,4-trimethylpyrrolidin-1-yl)-3-pyridyl]-4-methoxy-benzoate]	< 3
Cc1ccc(Oc2cccc(S(=O)(=O)NC(=O)c3cccnc3N3CC(C)CC3(C)C)n2)cc1 (stereo not shown) [Compound 2460, N—[[6-(4-methylphenoxy)-2-pyridyl]sulfonyl]-2-(2,2,4-trimethylpyrrolidin-1-yl)pyridine-3-carboxamide]	< 3

same assay, conditions: Table 3; compounds of Table 1 as modulators of CFTR activity; protocol not stated

Structure (SMILES)	EC30
Cc1cc(C)c(Oc2nc3c(cc2C(=O)NS(=O)(=O)c2cccc(N)n2)COCC3(C)C)c(C)c1 [Compound 714, N-[(6-amino-2-pyridyl)sulfonyl]-8,8-dimethyl-2-(2,4,6-trimethylphenoxy)-5,7-dihydropyrano[4,3-b]pyridine-3-carboxamide]	+++ (“+++” means <3 uM)
Cc1ccc(-c2ccc(C(=O)NS(=O)(=O)c3nccnc3N)c(Oc3ccc(C)cc3C)n2)cc1 [Compound 607, N-(3-aminopyrazin-2-yl)sulfonyl-2-(2,4-dimethylphenoxy)-6-(p-tolyl)pyridine-3-carboxamide]	+++ (“+++” means <3 uM)
COC(=O)[C@@H]1CCCN1c1nc(-c2cc(F)cc(OCC(C)C)c2)ccc1C(=O)NS(=O)(=O)c1cccc(N)n1 [Compound 385, methyl (2S)-1-[3-[(6-amino-2-pyridyl)sulfonylcarbamoyl]-6-(3-fluoro-5-isobutoxy-phenyl)-2-pyridyl]pyrrolidine-2-carboxylate]	+++ (“+++” means <3 uM)
CC(c1ccccc1)n1c(C(=O)NS(=O)(=O)c2ccncc2)cc2c(F)cccc21 (stereo not shown) [Compound 192, 4-fluoro-1-(1-phenylethyl)-N-(4-pyridylsulfonyl)indole-2-carboxamide]	+++ (“+++” means <3 uM)
CCCOc1cc(-c2ccc(C(=O)NS(=O)(=O)c3cccc(N)n3)c(N3CC(C)CC3(C)C)n2)ccc1Cl (stereo not shown) [Compound 644, N-[(6-amino-2-pyridyl)sulfonyl]-6-(4-chloro-3-propoxy-phenyl)-2-(2,2,4-trimethylpyrrolidin-1-yl)pyridine-3-carboxamide]	+++ (“+++” means <3 uM)
COc1ncc(-c2ccc(C(=O)NS(=O)(=O)c3cccc(N)n3)c(Oc3c(C)cc(C)cc3C)n2)cn1 [Compound 449, N-[(6-amino-2-pyridyl)sulfonyl]-6-(2-methoxypyrimidin-5-yl)-2-(2,4,6-trimethylphenoxy)pyridine-3-carboxamide]	+ (“+” means greater than 10 uM)
COc1ncccc1-c1cc(C(=O)NS(=O)(=O)c2cccc(N)c2)n(Cc2c(C)cc(C)cc2C)n1 [Compound 122, N-(3-aminophenyl)sulfonyl-5-(2-methoxy-3-pyridyl)-2-[(2,4,6-trimethylphenyl)methyl]pyrazole-3-carboxamide]	++ (“++” means between 3 uM and 10 uM)
COc1cccc(S(=O)(=O)NC(=O)c2ccc(C(C)(C)C)nc2Oc2c(C)cc(C)cc2C)c1 [Compound 56, 6-tert-butyl-N-(3-methoxyphenyl)sulfonyl-2-(2,4,6-trimethylphenoxy)pyridine-3-carboxamide]	+++ (“+++” means <3 uM)
Cc1ccccc1N(C)c1nc(C(C)(C)C)ccc1C(=O)NS(=O)(=O)c1cccc(N)c1 [Compound 193, N-(3-aminophenyl)sulfonyl-6-tert-butyl-2-(N,2-dimethylanilino)pyridine-3-carboxamide]	+++ (“+++” means <3 uM)
CC(C)COc1cc(F)cc(-c2ccc(C(=O)NS(=O)(=O)c3ccn[nH]3)c(NCC3CC(F)(F)C3)n2)c1 [Compound 393, 2-[(3,3-difluorocyclobutyl)methylamino]-6-(3-fluoro-5-isobutoxy-phenyl)-N-(1H-pyrazol-5-ylsulfonyl)pyridine-3-carboxamide]	++ (“++” means between 3 uM and 10 uM)
CC(C)Oc1ccc(-c2ccc(C(=O)NS(=O)(=O)c3cccc(N)n3)c(N3CCCC3C(C)C)n2)cn1 (stereo not shown) [Compound 724, N-[(6-amino-2-pyridyl)sulfonyl]-6-(6-isopropoxy-3-pyridyl)-2-(2-isopropylpyrrolidin-1-yl)pyridine-3-carboxamide]	+++ (“+++” means <3 uM)
Cc1cc(C)c(CN2C[C@@H](c3ccccc3)C[C@H]2C(=O)NS(=O)(=O)c2cccc(N)n2)c(C)c1 [Compound 236, (2S,4R)—N-[(6-Amino-2-pyridyl)sulfonyl]-4-phenyl-1-[(2,4,6-trimethylphenyl)methyl]pyrrolidine-2-carboxamide]	++ (“++” means between 3 uM and 10 uM)
Cc1cc(C)c(CN2Cc3ccccc3C2(C)C(=O)NS(=O)(=O)c2nccnc2N)c(C)c1 (stereo not shown) [Compound 480, N-(3-aminopyrazin-2-yl)sulfonyl-1-methyl-2-[(2,4,6-trimethylphenyl)methyl]isoindoline-1-carboxamide]	+++ (“+++” means <3 uM)
Cc1cc(C)c(Cn2nc(C3(C)CC3)cc2C(=O)NS(=O)(=O)c2cccc(N)c2)c(C)c1 [Compound 158, N-(3-aminophenyl)sulfonyl-5-(1-methylcyclopropyl)-2-[(2,4,6-trimethylphenyl)methyl]pyrazole-3-carboxamide]	+++ (“+++” means <3 uM)
COc1cc(-c2cc(C(=O)NS(=O)(=O)c3ccccc3)n(Cc3c(C)cccc3C)n2)ccc1Cl [Compound 37, N-(benzenesulfonyl)-5-(4-chloro-3-methoxy-phenyl)-2-[(2,6-dimethylphenyl)methyl]pyrazole-3-carboxamide]	+++ (“+++” means <3 uM)
COc1ccc2c(c1)cc(C(=O)NS(=O)(=O)c1cccc(N)c1)n2Cc1c(C)cc(C)cc1C [Compound 336, N-(3-aminophenyl)sulfonyl-5-methoxy-1-[(2,4,6-trimethylphenyl)methyl]indole-2-carboxamide]	+++ (“+++” means <3 uM)
